The values that follow are results of earlier work, collected in patent US3959464A, “Microencapsulated methyl and ethyl parathion insecticide in aqueous carrier” (Pennwalt Corporation, priority 1971, dated 1976).

One data set deals with insects. The conditions noted are these: ordinary methods of application.
The subject of the next data set is food crops. The conditions noted are these: unmodified, unencapsulated.
The conditions of data set [1]: for effect of moisture (hydrolysis): contacted by moisture; for degradation in the field: hydrolysis and oxidation reactions.

For the compound `CCOP(=S)(OCC)Oc1ccc([N+](=O)[O-])cc1` [ethyl parathion, O,O-diethyl-O-p-nitrophenol phosphorothioate], in the data set with insects, the “period of pesticidal effectiveness in the field” value was “only several days”. Moreover, in the data set with food crops, the phytotoxicity result is on record as “chemical phytotoxicity to various food crops”. In data set [1], the “effect of moisture (hydrolysis)” value is reported as “rendered ineffectual by hydrolysis when contacted by moisture” and the “degradation in the field” value is given as “rapid degradation in the field”.

Consider `COP(=S)(OC)Oc1ccc([N+](=O)[O-])cc1` [methyl parathion, O,O-dimethyl-O-p-nitrophenol phosphorothioate], for which the “period of pesticidal effectiveness in the field” value in the data set with insects is on record as “only several days”. For the same compound, in the data set with food crops, the phytotoxicity entry is “chemical phytotoxicity to various food crops”. For the same compound, in data set [1], the “effect of moisture (hydrolysis)” value is “rendered ineffectual by hydrolysis when contacted by moisture” and the “degradation in the field” value was “rapid degradation in the field”.
